# Earlier results as cited in patent EP0333071A2, “Polypeptides, methods for their preparation, pharmaceutical compositions comprising them and use” (Eisai Co., Ltd., priority 1988, dated 1989).
# Test system: enhancement in the quantity of spontaneous motion induced by methamphethamine
# Conditions: general administration; comparison statement for neurotensin or derivatives thereof
substance,measurement,value
neurotensin,methamphethamine antagonism,hardly exhibit methamphethamine antagonism
